This note sets out measurements from ChEMBL document CHEMBL1136267, “Design and synthesis of novel PPARalpha/gamma/delta triple activators using a known PPARalpha/gamma dual activator as structural template” (Bioorg Med Chem Lett, 2003).

In general, EC50 refers to the concentration giving half of the maximal effect. Low values mean higher potency in that assay, high ones lower potency in that assay.

Assay [1] has as its target T1, Peroxisome proliferator-activated receptor alpha (Homo sapiens, UniProt Q07869).
T1 sequence (Q07869 whole entry): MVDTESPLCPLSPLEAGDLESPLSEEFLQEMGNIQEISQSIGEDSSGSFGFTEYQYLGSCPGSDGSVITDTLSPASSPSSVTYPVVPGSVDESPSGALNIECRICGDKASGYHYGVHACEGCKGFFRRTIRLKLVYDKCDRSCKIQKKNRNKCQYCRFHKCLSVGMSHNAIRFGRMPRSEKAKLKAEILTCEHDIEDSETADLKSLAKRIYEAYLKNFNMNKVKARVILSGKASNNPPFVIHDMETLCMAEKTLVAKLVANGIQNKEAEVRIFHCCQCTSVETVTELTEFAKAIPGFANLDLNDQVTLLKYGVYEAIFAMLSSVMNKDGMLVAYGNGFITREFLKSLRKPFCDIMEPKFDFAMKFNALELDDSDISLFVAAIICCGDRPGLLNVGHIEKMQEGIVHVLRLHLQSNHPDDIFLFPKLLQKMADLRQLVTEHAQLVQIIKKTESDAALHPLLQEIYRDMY
Description: In vitro activation of human peroxisome proliferator activated receptor alpha

Assay [2] deals with T2, Peroxisome proliferator-activated receptor gamma (Homo sapiens, UniProt P37231).
T2 sequence (P37231 whole entry): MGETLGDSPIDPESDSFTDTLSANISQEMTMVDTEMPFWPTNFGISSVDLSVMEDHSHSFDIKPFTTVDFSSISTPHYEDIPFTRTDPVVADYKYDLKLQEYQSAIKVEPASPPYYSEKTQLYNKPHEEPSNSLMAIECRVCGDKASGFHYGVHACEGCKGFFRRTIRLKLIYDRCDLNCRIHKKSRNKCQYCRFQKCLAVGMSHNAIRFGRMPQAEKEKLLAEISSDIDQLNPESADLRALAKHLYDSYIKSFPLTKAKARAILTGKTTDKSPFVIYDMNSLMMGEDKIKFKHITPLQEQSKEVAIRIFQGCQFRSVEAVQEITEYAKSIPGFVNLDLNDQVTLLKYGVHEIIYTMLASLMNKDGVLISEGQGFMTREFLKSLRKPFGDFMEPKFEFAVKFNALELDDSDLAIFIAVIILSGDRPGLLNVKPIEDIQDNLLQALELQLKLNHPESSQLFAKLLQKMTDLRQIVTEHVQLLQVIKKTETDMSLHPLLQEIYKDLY
Kind of assay: In vitro activation of human peroxisome proliferator activated receptor gamma (PPAR gamma).

For assay [3], the target named is T3, Peroxisome proliferator-activated receptor delta (Homo sapiens, UniProt Q03181).
T3 sequence (Q03181 whole entry): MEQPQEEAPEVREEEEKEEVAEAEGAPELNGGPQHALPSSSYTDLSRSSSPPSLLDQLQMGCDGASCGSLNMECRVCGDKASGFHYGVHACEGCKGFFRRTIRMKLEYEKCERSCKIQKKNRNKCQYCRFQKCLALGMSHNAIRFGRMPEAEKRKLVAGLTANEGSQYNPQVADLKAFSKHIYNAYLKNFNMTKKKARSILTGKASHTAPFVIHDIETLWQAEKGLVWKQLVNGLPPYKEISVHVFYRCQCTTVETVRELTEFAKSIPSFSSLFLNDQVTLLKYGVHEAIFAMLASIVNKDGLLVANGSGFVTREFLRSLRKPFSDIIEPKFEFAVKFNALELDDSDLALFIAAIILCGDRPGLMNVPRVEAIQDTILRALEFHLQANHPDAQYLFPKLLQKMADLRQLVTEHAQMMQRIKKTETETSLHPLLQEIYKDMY
Kind of assay: In vitro activation of human peroxisome proliferator activated receptor delta (PPAR delta).

Consider `CCO[C@@H](Cc1ccc(OCC=C(c2ccccc2)c2ccccc2)cc1)C(=O)O`, for which the values for the EC50 in assay [1], in assay [2] and in assay [3] were 6400 nM, 2700 nM and 5700 nM, respectively.

In the case of `CCO[C@@H](Cc1ccc(OC/C=C(/c2ccccc2)c2ccc(F)cc2)cc1)C(=O)O`, the EC50 in assay [1] amounted to 3200 nM; in assay [2], 4000 nM; in assay [3], 3400 nM.

For `CCO[C@@H](Cc1ccc(OC/C=C(\c2ccccc2)c2ccc(F)cc2)cc1)C(=O)O`, the EC50 in assay [1] was found to be 5300 nM; in assay [2], 8500 nM; in assay [3], 8300 nM.

As for `CCO[C@@H](Cc1ccc(OCC=C(c2ccc(OC)cc2)c2ccc(OC)cc2)cc1)C(=O)O`, the EC50 in assay [1] was determined as 2200 nM; in assay [2], 2200 nM; in assay [3] it was 700 nM.

Regarding `CCO[C@@H](Cc1ccc(OCC=C(c2ccc(-c3ccccc3)cc2)c2ccc(-c3ccccc3)cc2)cc1)C(=O)O`, the EC50 worked out at 1100 nM in assay [1], 300 nM in assay [2] and 500 nM in assay [3].

As for `CCO[C@@H](Cc1ccc(OC/C=C(\c2ccccc2)c2ccc(-c3ccccc3)cc2)cc1)C(=O)O`, the values for the EC50 in assay [1], in assay [2] and in assay [3] were 900 nM, 600 nM and 2200 nM, respectively.

On to `CCO[C@@H](Cc1ccc(OC/C=C(/c2ccccc2)c2ccc(-c3ccccc3)cc2)cc1)C(=O)O`, for which the EC50 in assay [1] came to 700 nM; in assay [2], 1700 nM; in assay [3] it was 2200 nM.

Turning to `CCO[C@@H](Cc1ccc(OCCN(c2ccccc2)c2ccccc2)cc1)C(=O)O`, the EC50 in assay [1] was found to be 4500 nM; in assay [2] it was 3300 nM.

On to `CCO[C@@H](Cc1ccc(OC/C=C(/c2ccccc2)c2ccc(Br)cc2)cc1)C(=O)O`, for which the results for the EC50 in assay [1], in assay [2] and in assay [3] were 2200 nM, 4300 nM and 3400 nM, respectively.

On to `CCO[C@@H](Cc1ccc(OCC=C(c2ccc(-c3ccco3)cc2)c2ccc(-c3ccco3)cc2)cc1)C(=O)O`, for which the EC50 was determined as 2000 nM in assay [1], 2900 nM in assay [2] and 1000 nM in assay [3].

`CCO[C@@H](Cc1ccc(OCC=C(c2ccc(Br)cc2)c2ccc(Br)cc2)cc1)C(=O)O`: the EC50 in assay [1] amounted to 300 nM; in assay [2], 900 nM; in assay [3], 400 nM.

Turning to `CCO[C@@H](Cc1ccc(OCC=C(c2ccc(C)cc2)c2ccc(C)cc2)cc1)C(=O)O`, the EC50 in assay [1] came out at 700 nM; in assay [2] it was 3100 nM; in assay [3], 2000 nM.

For `CCO[C@@H](Cc1ccc(OC/C=C(\c2ccccc2)c2ccc(-c3ccco3)cc2)cc1)C(=O)O`, the EC50 in assay [1] came to 300 nM; in assay [2], 800 nM; in assay [3] it was 600 nM.

In the case of `CCO[C@@H](Cc1ccc(OC/C=C(\c2ccccc2)c2ccc(Br)cc2)cc1)C(=O)O`, the values for the EC50 in assay [1], in assay [2] and in assay [3] were 1100 nM, 1500 nM and 900 nM, respectively.

As for `CCO[C@@H](Cc1ccc(OC/C=C(/c2ccccc2)c2ccc(-c3ccco3)cc2)cc1)C(=O)O`, the EC50 in assay [1] stood at 400 nM; in assay [2] it was 2000 nM; in assay [3], 2000 nM.
